This passage reports IC50 and GI50 results from US8143282B2, “Heterocyclic compounds” (S*BIO Pte Ltd., priority 2005, dated 2012).

Each structure is given as a SMILES string.

The target in one experiment is T1, HDAC1 enzyme (Homo sapiens, UniProt Q13547).
T1 construct: Amplification of human HDAC1 coding region from this cDNA library was cloned separately into the baculovirus expression pDEST20 vector; made in house; host or cells: SF9 insect cells, pDEST20-HDAC1 baculovirus
In words: In vitro HDAC assay for determination of IC50 values (BIOMOL fluorescent-based HDAC activity assay). It is filed as biochemical. Here is the method: Human cDNA library was prepared using cultured SW620 cells. Amplification of human HDAC1 coding region from this cDNA library was cloned separately into the baculovirus expression pDEST20 vector (GATEWAY Cloning Technology, Invitrogen Pte Ltd). The pDEST20-HDAC1 construct was confirmed by DNA sequencing. Recombinant baculovirus was prepared using the Bac-To-Bac method following the manufacturer's instruction (Invitrogen Pte Ltd).
Expression of GST-HDAC1 was done by infecting SF9 cells (Invitrogen Pte Ltd) with pDEST20-HDAC1 baculovirus at MOI=1 for 48 h. Soluble cell lysate was incubated with pre-equilibrated Glutathione Sepharose 4B beads (Amersham) at 4° C. for 2 h. The beads were washed with PBS buffer for 3 times. The GST-HDAC1 protein was eluted by elution buffer containing 50 mM Tris, pH8.0, 150 mM NaCl, 1% Triton X-100 and 10 mM or 20 mM reduced Glutathione. The purified GST-HDAC1 protein was dialyzed with HDAC storage buffer containing 10 mM Tris, pH7.5, 100 mM NaCl and 3 mM MgCl2. 20% Glycerol was added to purified GST-HDAC1 protein before storage at −80° C.
The assay has been carried out in 96 well format and the BIOMOL fluorescent-based HDAC activity assay has been applied. […] Flur de lys Developer was added and the reaction was incubated for 10 min. Briefly, deacetylation of the substrate sensitizes it to the developer, which then generates a fluorophore. The fluorophore is excited with 360 nm light and the emitted light (460 nm) is detected on a fluorometric plate reader (Tecan Ultra Microplate detection system, Tecan Group Ltd.).
The analytical software, Prism 4.0 (GraphPad Software Inc) has been used to generate IC50 from a series of data.

Another experiment concerns Colo205 cells. In words: Cell-based proliferation assay for GI50 (CyQUANT), Colo205. To be noted: Homo sapiens, COLO 205, 96 h treatment, read-out: Cellular or Growth Inhibition Activity in Colo205 cells, GI50. How it is done: Human colon cancer cell lines (Colo205, HCT116), Ovarian cancer cell line (A2780), Hepatoma cell line (HEP3B), Prostate cancer cell line (PC3) were obtained from ATCC or ECACC. Colo205 cells were cultivated in RPMI 1640 containing 2 mM L-Glutamine, 5% FBS, 1.0 mM Na Pyruvate, 1 U/ml of penicillin and 1 μg of streptomycin. HCT116 cells were cultivated in McCoy's containing RPMI 1640 containing 2 mM L-Glutamine, 5% FBS, 1 U/ml of penicillin and 1 μg of streptomycin. A2780 cells were cultivated in RPMI 1640 containing 2 mM L-Glutamine, 5% FBS, 1 U/ml of penicillin and 1 μg of streptomycin. HEP3B cells were cultivated in EMEM containing 2 mM L-glutamine, 5% FBS, 1% non essential amino acid, 1 mM Na Pyruvate, 1 U/ml of penicillin and 1 μg of streptomycin. PC3 cells were cultivated in F12K, 2 mM L-glutamine, 5% FBS, 1 U/ml of penicillin and 1 μg of streptomycin. PC3, Colo205, and HCT116 cells were seeded in 96-wells plate at 1000, 5000 and 6000 cells per well respectively. A2780 and HEP3B cells were seeded in 96-wells plate at 4000 cells per well respectively. The plates were incubated at 37° C., 5% CO2, for 24 h. Cells were treated with compounds at various concentrations for 96 h. Cell growth was then monitored using CyQUANT® cell proliferation assay (Invitrogen Pte Ltd). Dose response curves were plotted to determine GI50 values for the compounds using XL-fit (ID Business Solution, Emeryville, Calif.). GI50 is defined as the concentration of compound required for 50% inhibition of cell growth.

T1 sequence (Q13547 whole entry): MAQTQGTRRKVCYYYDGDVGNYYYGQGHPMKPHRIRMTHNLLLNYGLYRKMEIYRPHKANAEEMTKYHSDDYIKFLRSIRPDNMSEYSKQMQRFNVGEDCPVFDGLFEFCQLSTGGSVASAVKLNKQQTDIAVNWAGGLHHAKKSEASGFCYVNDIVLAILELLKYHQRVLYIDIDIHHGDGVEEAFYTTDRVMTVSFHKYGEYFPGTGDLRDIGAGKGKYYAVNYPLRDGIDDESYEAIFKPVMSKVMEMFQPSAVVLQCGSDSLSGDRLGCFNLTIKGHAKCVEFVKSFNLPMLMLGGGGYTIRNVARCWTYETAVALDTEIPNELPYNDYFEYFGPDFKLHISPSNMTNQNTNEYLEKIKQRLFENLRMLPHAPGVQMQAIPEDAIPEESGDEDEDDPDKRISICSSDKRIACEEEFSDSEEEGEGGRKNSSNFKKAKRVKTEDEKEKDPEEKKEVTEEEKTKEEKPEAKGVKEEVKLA

As for `CCCCCCCCc1nc2cc(/C=C/C(=O)NO)ccc2n1CCN` [Compound 77, 3-[1-(2-Amino-ethyl)-2-octyl-1H-benzoimidazol-5-yl]-N-hydroxy-acrylamide], 26 nM corresponded to half-maximal inhibition at HDAC1 enzyme (IC50). For the same compound, in the experiment on Colo205 cells, the GI50 (commonly the concentration giving 50% growth inhibition) is 670 nM.

Consider `CCCCCc1nc2cc(/C=C/C(=O)NO)ccc2n1CCN(C)CC` [Compound 79, 3-{1-[2-(Ethyl-methyl-amino)-ethyl]-2-pentyl-1H-benzoimidazol-5-yl}-N-hydroxy-acrylamide], for which, at HDAC1 enzyme, the midpoint of inhibition, the IC50, lay at 40 nM. The GI50 in the experiment on Colo205 cells turned out to be 450 nM.

With `CCCCc1nc2cc(/C=C/C(=O)NO)ccc2n1C1CCN(C)C1` (stereo not shown) [Compound 81, 3-[2-Butyl-1-(1-methyl-pyrrolidin-3-yl)-1H-benzoimidazol-5-yl]-N-hydroxy-acrylamide], the concentration for half-maximal inhibition (IC50) (usually the concentration that inhibits the measured activity by half) at HDAC1 enzyme is 120 nM. Moreover, the GI50 in the experiment with Colo205 cells was found to be 1000 nM.

`CCCCCc1nc2cc(/C=C/C(=O)NO)ccc2n1CCN(CC)CCOC` [Compound 84, 3-(1-{2-[Ethyl-(2-methoxy-ethyl)-amino]-ethyl}-2-pentyl-1H-benzoimidazol-5-yl)-N-hydroxy-acrylamide]: at HDAC1 enzyme, half-maximal inhibition (IC50) was put at 63 nM. In addition, the concentration for 50% growth inhibition (GI50) in the experiment with Colo205 cells was 1030 nM.

In the case of `CCCCc1nc2cc(/C=C/C(=O)NO)ccc2n1CCN(C)CC` [Compound 85, 3-{2-Butyl-1-[2-(ethyl-methyl-amino)-ethyl]-1H-benzoimidazol-5-yl}-N-hydroxy-acrylamide], half-maximal inhibition against HDAC1 enzyme (IC50) required 110 nM. Also, the concentration for 50% growth inhibition (GI50) in the experiment on Colo205 cells was 1520 nM.

On HDAC1 enzyme, `CCCCCc1nc2cc(/C=C/C(=O)NO)ccc2n1C1CCCN(C)C1` (stereo not shown) [Compound 86, N-Hydroxy-3-[1-(1-methyl-piperidin-3-yl)-2-pentyl-1H-benzoimidazol-5-yl]-acrylamide] registered an IC50 of 160 nM. The concentration for 50% growth inhibition (GI50) in the experiment with Colo205 cells stood at 2080 nM.

The compound `CCCCCCN(CC)CCn1cnc2cc(/C=C/C(=O)NO)ccc21` [Compound 87, 3-{1-[2-(Ethyl-hexyl-amino)-ethyl]-1H-benzoimidazol-5-yl}-N-hydroxy-acrylamide] registered an IC50 against HDAC1 enzyme of 100 nM. Further, the GI50 in the experiment with Colo205 cells came to 1070 nM.

On to `CCCCCCCN(CC)CCn1cnc2cc(/C=C/C(=O)NO)ccc21` [Compound 89, 3-{1-[2-(Ethyl-heptyl-amino)-ethyl]-1H-benzoimidazol-5-yl}-N-hydroxy-acrylamide], for which the midpoint of inhibition against HDAC1 enzyme, the IC50, lay at 80 nM. Further, in the experiment on Colo205 cells, the concentration for 50% growth inhibition (GI50) amounted to 870 nM.

On to `CCCCCCc1nc2cc(/C=C/C(=O)NO)ccc2n1C1CCCN(CCO)C1` (stereo not shown) [Compound 90, 3-{2-Hexyl-1-[1-(2-hydroxy-ethyl)-piperidin-3-yl]-1H-benzoimidazol-5-yl}-N-hydroxy-acrylamide], for which the IC50 against HDAC1 enzyme worked out at 510 nM. Also, in the experiment on Colo205 cells, the GI50 came to 8100 nM.

Regarding `CCCCc1nc2cc(/C=C/C(=O)NO)ccc2n1CCN(CC)CCCO` [Compound 91, 3-(2-Butyl-1-{2-[ethyl-(3-hydroxy-propyl)-amino]-ethyl}-1H-benzoimidazol-5-yl)-N-hydroxy-acrylamide], on HDAC1 enzyme, half-maximal inhibition (IC50) required 60 nM. Also, the GI50 in the experiment on Colo205 cells turned out to be 2400 nM.

In the case of `CCCCCc1nc2cc(/C=C/C(=O)NO)ccc2n1CCN(CC)CCCO` [Compound 92, 3-(1-{2-[Ethyl-(3-hydroxy-propyl)-amino]-ethyl}-2-pentyl-1H-benzoimidazol-5-yl)-N-hydroxy-acrylamide], half-maximal inhibition at HDAC1 enzyme (IC50) was put at 50 nM. For the same compound, the GI50 with Colo205 cells was 1820 nM.

With `O=C(/C=C/c1ccc2c(c1)ncn2C1CCN(CCc2ccccc2)C1)NO` (stereo not shown) [Compound 93, (E)-N-hydroxy-3-(1-(1-phenethylpyrrolidin-3-yl)-1H-benzo[d]imidazol-5-yl)acrylamide], half-maximal inhibition on HDAC1 enzyme (IC50) required 230 nM. For the same compound, in the experiment on Colo205 cells, the 50% growth inhibitory concentration (GI50) came to 2140 nM.

In the case of `CCCCCN1CCCC(n2cnc3cc(/C=C/C(=O)NO)ccc32)C1` (stereo not shown) [Compound 94, (E)-N-hydroxy-3-(1-(1-pentylpiperidin-3-yl)-1H-benzo[d]imidazol-5-yl)acrylamide], on HDAC1 enzyme, 64 nM corresponded to half-maximal inhibition (IC50). Further, the concentration for 50% growth inhibition (GI50) with Colo205 cells worked out at 600 nM.

In the case of `CCCCN(CC)CCn1cnc2cc(/C=C/C(=O)NO)ccc21` [Compound 95, 3-{1-[2-(Butyl-ethyl-amino)-ethyl]-1H-benzoimidazol-5-yl}-N-hydroxy-acrylamide], the IC50 on HDAC1 enzyme was 52 nM. The 50% growth inhibitory concentration (GI50) with Colo205 cells was 570 nM.

Take `O=C(/C=C/c1ccc2c(c1)ncn2C1CCCN(CCc2ccccc2)C1)NO` (stereo not shown) [Compound 96, (E)-N-hydroxy-3-(1-(1-phenethylpiperidin-3-yl)-1H-benzo[d]imidazol-5-yl)acrylamide]: the midpoint of inhibition on HDAC1 enzyme, the IC50, lay at 80 nM. For the same compound, in the experiment with Colo205 cells, the concentration for 50% growth inhibition (GI50) came out at 700 nM.

In turn, `O=C(/C=C/c1ccc2c(c1)ncn2C1CCCN(CCCc2ccccc2)C1)NO` (stereo not shown) [Compound 97, (E)-N-hydroxy-3-(1-(1-(3-phenylpropyl)piperidin-3-yl)-1H-benzo[d]imidazol-5-yl)acrylamide] had a 50% inhibitory concentration (IC50) against HDAC1 enzyme of 100 nM. In the experiment with Colo205 cells, the GI50 amounted to 670 nM.

`CC(C)(C)CCN1CCC(n2cnc3cc(/C=C/C(=O)NO)ccc32)C1` (stereo not shown) [Compound 99, 3-{1-[1-(3,3-Dimethyl-butyl)-pyrrolidin-3-yl]-1H-benzoimidazol-5-yl}-N-hydroxy-acrylamide] came in with an IC50 against HDAC1 enzyme of 120 nM. In addition, the GI50 with Colo205 cells was 1890 nM.

As to `CCN(CC)CCn1cnc2cc(/C=C/C(=O)NO)ccc21` [Compound 100, (E)-3-(1-(2-(diethylamino)ethyl)-1H-benzo[d]imidazol-5-yl)-N-hydroxyacrylamide], on HDAC1 enzyme, the half-inhibitory concentration (IC50) was determined as 190 nM. In the experiment with Colo205 cells, the GI50 amounted to 2250 nM.

On HDAC1 enzyme, `CCN(CC)CCn1c(CCCCC#N)nc2cc(/C=C/C(=O)NO)ccc21` [Compound 101, 3-[2-(4-Cyano-butyl)-1-(2-diethylamino-ethyl)-1H-benzoimidazol-5-yl]-N-hydroxy-acrylamide] displayed an IC50 of 80 nM. The GI50 in the experiment on Colo205 cells turned out to be 2440 nM.

The compound `CCCCN1CCCC(n2cnc3cc(/C=C/C(=O)NO)ccc32)C1` (stereo not shown) [Compound 102, (E)-3-(1-(1-butylpiperidin-3-yl)-1H-benzo[d]imidazol-5-yl)-N-hydroxyacrylamide] displayed a 50% inhibitory concentration (IC50) against HDAC1 enzyme of 540 nM. Further, in the experiment on Colo205 cells, the GI50 came out at 2080 nM.

Take `C=CCCCN1CCCC(n2cnc3cc(/C=C/C(=O)NO)ccc32)C1` (stereo not shown) [Compound 103, (E)-N-hydroxy-3-(1-(1-(pent-4-enyl)piperidin-3-yl)-1H-benzo[d]imidazol-5-yl)acrylamide]: the midpoint of inhibition at HDAC1 enzyme, the IC50, lay at 100 nM. In addition, the GI50 in the experiment with Colo205 cells is 480 nM.

Consider `CC(C)(C)CCN1CCC(n2cnc3cc(/C=C/C(=O)NO)ccc32)CC1` [Compound 104, (E)-3-(1-(1-(3,3-dimethylbutyl)piperidin-4-yl)-1H-benzo[d]imidazol-5-yl)-N-hydroxyacrylamide], for which the IC50 against HDAC1 enzyme came to 410 nM. Also, in the experiment with Colo205 cells, the concentration for 50% growth inhibition (GI50) worked out at 1990 nM.

As to `CCCNc1nc2cc(/C=C/C(=O)NO)ccc2n1CCN(CC)CC` [Compound 105, 3-[1-(2-Diethylamino-ethyl)-2-propylamino-1H-benzoimidazol-5-yl]-N-hydroxy-acrylamide], the IC50 against HDAC1 enzyme was 130 nM. Further, in the experiment with Colo205 cells, the GI50 came out at 1770 nM.

Compound `CCCN(CCn1cnc2cc(/C=C/C(=O)NO)ccc21)C(C)C` [Compound 107, (E)-N-hydroxy-3-(1-(2-(isopropyl(propyl)amino)ethyl)-1H-benzo[d]imidazol-5-yl)acrylamide] yielded a half-inhibitory concentration (IC50) at HDAC1 enzyme of 74 nM. Also, in the experiment with Colo205 cells, the GI50 came out at 630 nM.

Consider `CCCCCN(CCn1cnc2cc(/C=C/C(=O)NO)ccc21)C(C)C` [Compound 109, N-Hydroxy-3-{1-[2-(isopropyl-pentyl-amino)-ethyl]-1H-benzoimidazol-5-yl}-acrylamide], for which, at HDAC1 enzyme, half-maximal inhibition (IC50) was put at 48 nM. Besides, the GI50 in the experiment on Colo205 cells came to 490 nM.

In turn, `CCN(CC)CCn1c(CCCCCC#N)nc2cc(/C=C/C(=O)NO)ccc21` [Compound 110, 3-[2-(5-Cyano-pentyl)-1-(2-diethylamino-ethyl)-1H-benzoimidazol-5-yl]-N-hydroxy-acrylamide] came in with an IC50 at HDAC1 enzyme of 44 nM. In addition, in the experiment with Colo205 cells, the GI50 was found to be 1740 nM.
